Results reported in publication PMC4020785 (PLoS ONE, 2014).

Columns and labels:
J1.1 cells = assay: gag p24 production in J1.1 cells (ELISA); type: cell-based, HIV-1; conditions: 1 µM, 48 h
Method: (§1) ACH-2 and J1.1 are clonal cell lines derived from CEM [52] and Jurkat cells, respectively, after infection with HIV-1. U1 cells were derived from the human promonocyte cell line U937 and chronically infected with HIV-1 [54]. Each cell line (1×10^6 cells) was incubated in the presence of 1 µM of diterpenes (ING-A, ING-B, ING-C, prostratin and PMA) or 10 ng/mL TNF-α for 48 h at 37°C. After incubation, cells were centrifuged and supernatants were collected for the quantitation of gag p24 antigen by ELISA, following the protocol described by the manufacturer (Perkin Elmer).

[1] = Cytotoxicity (CC50) in human PBMCs; type: cell-based; conditions: human PBMCs activated with IL-2 and PHA-P; Human PBMC, Subtype C (R5)
Method: Cytotoxicity of ISDs was evaluated in J-Lat (clones 9.2 and 10.6) and PHA-activated human PBMCs. Cells were added to wells in a 96-well plate in the presence of various concentrations of ISDs, PMA or prostratin in sextuplicates for 24 and 72 h. Cell viability was determined using the CellTiter-blue fluorescence Cell Viability Assay (Promega) following the manufacturer's instruction.
(§2) Human PMBCs were incubated with 100 U recombinant IL-2 (Sigma-Aldrich) and 5 µg/mL phytohemagglutinin-P (PHA-P) (Difco) for 5 days at 37°C. MT-4 cells (1×10^6) or treated PBMCs (1.2×10^8) were infected with HIV-1 clone NL-4.3 or ZM247Fv-1 (MOI of 0.001) by spinoculation (1200 g at room temperature for 2 h). Uninfected cells were used as negative control and were also subjected to the spinoculation process. After spinoculation, supernatants were discarded and cells were resuspended in 10 mL of R10. Cells from each condition were then added to wells (96-well plate) containing serial dilutions of each ISD. For MT-4 cells, each dilution was done in sextuplicates and, for PBMCs, in triplicates. Cells were also incubated with different concentrations of ZDV as positive control. After 5 days in culture, Cell Titer Blue was added to each well and cells were incubated for additional 24 h. The median effective concentration for each drug is defined as EC50. In parallel with the infectivity assay, the same cell types were treated with different concentrations of drugs to determine their cytotoxicity, following the protocol described above. Drug concentration that results in a 50% decrease in viable cells is defined as the CC50 for each compound. EC50 was calculated according to Spearman-Karber and therapeutic index was defined by the ratio between CC50 and EC50 [55].

[2] = test system: HIV-1 clone NL4.3 (subtype B); assay: HIV-1 NL4.3 (subtype B) infection of human PBMCs, Cell Titer Blue readout; type: cell-based
Method: as §2
All statistical analyses were performed using program GraphPism version 6.0. Titrations for TCID50 infectivity were calculated by the Spearman-Karber method. Dose response curves to ISDs with HIV-1 subtype B and C were done using non-linear regression and were fit to the Hill equation.

[3] = test system: latent HIV in CD4+ T cells from virally suppressed patients; assay: HIV pol RNA (RT-qPCR) in CD4+ T cells from HIV+ HAART-treated patients; type: cell-based, human; conditions: CD4+ T cells of five HIV+ HAART-treated patients, 1 µM, 24 h
From the text: Whole blood from five HIV+ patients at the Hospital Universitário Gaffrée e Guinle (Rio de Janeiro, Brazil) was collected for reactivation experiments. All individuals enrolled in the study voluntarily and provided written informed consent. Patients presented undetectable viral load (<50 copies/mL), more than 500 CD4+ T cells/mm^3 and have been HAART-treated for at least 10 months (Table 1). PBMCs where isolated following a Ficoll-Paque Plus protocol (GE Healthcare, UK). CD4+ T cells were selected by magnetic beads as described above, and 10^6 cells were incubated in R10 containing 1 µM of the testing compounds (ING-B, prostratin or PMA). DMSO 1% was used as negative control. The antiretroviral EFV (10 µM) was added to all conditions to prevent viral spread. After 24 h, cells were collected for RNA isolation using the All Prep Qiagen kit (Qiagen), as instructed by the manufacturer.
Total RNA from CD4+ T cells was analyzed by RT-qPCR using primers and probe (Life Technologies) specific for the HIV-pol region, as following: forward primer Pol-F (5'-[…] TTT T-3'), reverse primer Pol-R (5'-[…]-3') and a minor groove binder (MGB) probe Pol-Pb (5'-VIC-ATC CCC CCT TTT CTT T-3'). […]

[4] = test system: J-Lat (clones 9.2 and 10.6); assay: Cell viability of J-Lat clones 9.2 and 10.6 (CellTiter-blue); type: cell-based; conditions: J-Lat clones 9.2 and 10.6, 48 h
Method: Cytotoxicity of ISDs was evaluated in J-Lat (clones 9.2 and 10.6) and PHA-activated human PBMCs. […] Cell viability was determined using the CellTiter-blue fluorescence Cell Viability Assay (Promega) following the manufacturer's instruction.

[5] = design: method as in personal communication from Bioqual – Rockville, USA; conditions: Rhesus macaques, orally treated at similar dose; ref personal communication from Bioqual – Rockville, USA; cited from earlier work
[6] = test system: HIV-1 p24 in J-Lat clones; assay: HIV-1 p24 production in J-Lat clones (ELISA); type: cell-based; conditions: J-Lat clones, GFP and p24 taken together
Method: as §1
To assess whether the GFP expression levels induced by ISDs in J-Lats led to viral production, all five clones were stimulated with 1 µM of each compound for 48 h and production of HIV-1 p24 was measured in the culture supernatant by ELISA. Levels of p24 were proportional to GFP expression in clones 6.3 and 9.2, whereas levels in clone 8.4 were lower when compared to GFP (Figure 3A).

HIV LTR in J-Lat clones = assay: LTR-driven GFP expression in J-Lat clones; type: cell-based, HIV-1
Method: J-Lat cells are Jurkat cells stably transfected by an HIV genome whose nef sequence was replaced by the GFP gene. Also, a frameshift mutation was introduced to the env gene to prevent virus spread. […] To test the ISDs, a million cells of each clone were treated with different concentrations of each compound (ING-A, ING-B, ING-C, prostratin and PMA) at 37°C. TNF-α (10 ng/mL) was used as a positive control. After 48 h, cells were collected, washed with saline solution (PBS) and GFP expression was evaluated in a FACScalibur cytometer (BD Biosciences). Data were analyzed with Cell Quest Pro software (BD Biosciences).

## CCCCCC(=O)O[C@H]1C(C)=C[C@]23C(=O)[C@@H](C=C(CO)[C@@H](O)[C@]12O)[C@H]1[C@@H](C[C@H]3C)C1(C)C [ING-B, ingenol-3-hexanoate]
J1.1 cells
  p24 production (in words): as much p24 production as PMA and TNF-α, and twice as much as prostratin
[1]
  CC50 at 5 days: 40 µM
[2]; Human PBMC, Subtype B (X4)
  TI (CC50/EC50): 714.3
[2]; Human immunodeficiency virus 1, PBMC
  EC50: 0.056 µM
[3]
  HIV transcription (in words): levels similar to PMA treatment
[4]
  cell viability / toxicity: lower toxicity when compared to its counterparts
[5]
  side effects: negligible side effects
[6]
  HIV-LTR activation, overall comparison: equivalent levels to PMA and TNF-α
HIV LTR in J-Lat clones; J-Lat clone 10.6, 48 h
  GFP induction compared with other compounds: slightly more active than ING-A, ING-C and prostratin
HIV LTR in J-Lat clones; J-Lat clones 9.2 and 10.6, 48 h, all concentrations tested
  levels of GFP expression, rank order: PMA = ING-B > ING-A = ING-C > prostratin
